Source: publication PMC11571207, “Stereorandomized Oncocins with Preserved Ribosome Binding and Antibacterial Activity” (Journal of Medicinal Chemistry, 2024)
Where two headings read alike, the source gives them in different places. No end group written: not given here.

Tests used:
[1] = test system: P. aeruginosa PA14 4.18 (pmrB); settings: for MIC P. aeruginosa PA14 4.18 (pmrB), 12.5% MHB / MIC P. aeruginosa PA14 4.18 (pmrB), full MHB: polymyxin B resistant strain, 16–20 h at 37 °C; for MIC P. aeruginosa PA14 4.18 (pmrB), 12.5% MHB: 12.5% MHB pH 7.4; for MIC P. aeruginosa PA14 4.18 (pmrB), full MHB: full MHB pH 7.4; for MIC P. aeruginosa PA14 4.18: supplement CSV
E. coli BW25113 WT = settings: Table S1, 16-20 h at 37 °C; for MIC E. coli BW25113 WT, 12.5% MH: 12.5% Müller-Hinton medium pH 7.4; for MIC E. coli BW25113 WT, Full MH: full Müller-Hinton medium pH 7.4
Procedure, shortened: (§1)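 Incubation was 16-20 h at 37 °C, with kanamycin-supplemented preculture for the sbmA::kan mutant. MIC is the lowest concentration preventing visible growth, assessed with MTT.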

[2] = test system: E. coli BW25113 sbmA::kan; settings: Table S1, sbmA::kan mutant, 16-20 h at 37 °C; for MIC E. coli BW25113 SbmA-, 12.5% MH: 12.5% Müller-Hinton medium pH 7.4
Procedure, shortened: as §1

P. aeruginosa ZEM-1A = assay: microbe, parasite or virus in culture; settings: for MIC P. aeruginosa ZEM-1A, 12.5% MHB: 12.5% MHB pH 7.4; for MIC P. aeruginosa ZEM-1A: supplement CSV
Procedure, shortened: (§2)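 Minimal inhibitory concentrations come from broth microdilution in MH medium, with a top peptide concentration of 64 μg/mL halved serially.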

[3] = test system: P. aeruginosa PA14 2P4 (pmrB); assay: microbe, parasite or virus in culture; settings: for MIC P. aeruginosa PA14 2P4 (pmrB), 12.5% MHB / MIC P. aeruginosa PA14 2P4 (pmrB), full MHB: polymyxin B resistant strain, 16–20 h at 37 °C; for MIC P. aeruginosa PA14 2P4 (pmrB), 12.5% MHB: 12.5% MHB pH 7.4; for MIC P. aeruginosa PA14 2P4 (pmrB), full MHB: full MHB pH 7.4; for MIC P. aeruginosa PA14 2P4: supplement CSV
Procedure, shortened: as §2

P. aeruginosa PA14 = assay: microbe, parasite or virus in culture; settings: for MIC P. aeruginosa PA14, 12.5% MHB: 12.5% MHB pH 7.4; for MIC P. aeruginosa PA14, 12.5% MHB / MIC P. aeruginosa PA14, full MHB: 16–20 h at 37 °C, two different duplicate MIC determinations; for MIC P. aeruginosa PA14, full MHB: full MHB pH 7.4; for MIC P. aeruginosa PA14: supplement CSV
Procedure, shortened: as §2

P. aeruginosa ZEM9A = assay: microbe, parasite or virus in culture; settings: for MIC P. aeruginosa ZEM9A, 12.5% MHB / MIC P. aeruginosa ZEM9A, full MHB: clinical isolate, 16–20 h at 37 °C; for MIC P. aeruginosa ZEM9A, 12.5% MHB: 12.5% MHB pH 7.4; for MIC P. aeruginosa ZEM9A, full MHB: full MHB pH 7.4; for MIC P. aeruginosa ZEM9A: supplement CSV
Procedure, shortened: as §2

E. cloacae = assay: microbe, parasite or virus in culture; settings: for MIC E. cloacae, 12.5% MHB: 12.5% MHB pH 7.4; for MIC E. cloacae, 12.5% MHB / MIC E. cloacae, full MHB: 16–20 h at 37 °C; for MIC E. cloacae, full MHB: full MHB pH 7.4; for MIC E. cloacae: supplement CSV
Procedure, shortened: as §2

K. pneumoniae OXA-48 = assay: microbe, parasite or virus in culture; settings: for MIC K. pneumoniae OXA-48, 12.5% MHB / MIC K. pneumoniae OXA-48, full MHB: carbapenem-resistant, 16–20 h at 37 °C; for MIC K. pneumoniae OXA-48, 12.5% MHB: 12.5% MHB pH 7.4; for MIC K. pneumoniae OXA-48, full MHB: full MHB pH 7.4; for MIC K. pneumoniae OXA-48: supplement CSV
Procedure, shortened: as §2

human red blood cells = assay: Hemolysis assay, minimum hemolytic concentration; settings: for Haemolysis on hRBC, MHC: 2.5% human red blood cells (final) in 10 mM phosphate, 150 mM NaCl, pH 7.4, 25 °C, 4 h, visual inspection; for MHC human red blood cells: supplement CSV
[4] = clinical isolate, 16–20 h at 37 °C, cells marked c: single measurement (in duplicates)

Substance	MIC P. aeruginosa PA14 4.18 (pmrB), 12.5% MHB [1]	MIC P. aeruginosa PA14 4.18 (pmrB), full MHB [1]	MIC P. aeruginosa PA14 4.18 ([1]; 12.5% MH pH 7.4)	MIC P. aeruginosa PA14 4.18 ([1]; full MH pH 7.4)	MIC E. coli BW25113 WT, 12.5% MH (E. coli BW25113 WT)	MIC E. coli BW25113 WT, Full MH (E. coli BW25113 WT)	MIC E. coli BW25113 SbmA-, 12.5% MH [2]	MIC P. aeruginosa ZEM-1A, 12.5% MHB (P. aeruginosa ZEM-1A; [4])	MIC P. aeruginosa ZEM-1A (P. aeruginosa ZEM-1A; 12.5% MH pH 7.4)	MIC P. aeruginosa PA14 2P4 (pmrB), 12.5% MHB [3]	MIC P. aeruginosa PA14 2P4 (pmrB), full MHB [3]	MIC P. aeruginosa PA14 2P4 ([3]; 12.5% MH pH 7.4)	MIC P. aeruginosa PA14 2P4 ([3]; full MH pH 7.4)	MIC P. aeruginosa PA14, 12.5% MHB (P. aeruginosa PA14)	MIC P. aeruginosa PA14, full MHB (P. aeruginosa PA14)	MIC P. aeruginosa PA14 (P. aeruginosa PA14; 12.5% MH pH 7.4)	MIC P. aeruginosa PA14 (P. aeruginosa PA14; full MH pH 7.4)	MIC P. aeruginosa ZEM9A, 12.5% MHB (P. aeruginosa ZEM9A)	MIC P. aeruginosa ZEM9A, full MHB (P. aeruginosa ZEM9A)	MIC P. aeruginosa ZEM9A (P. aeruginosa ZEM9A; 12.5% MH pH 7.4)	other results
VDKPPYLPRPRPPRRIYNR [sr-Onc] (VDKPPYLPRPRPPRRIYNR-NH2; also: all 19 residues stereorandomized (1:1 L/D mixture))	32 µg/mL	> 64 µg/mL	32 µg/mL	>64 µg/mL	8 µg/mL	> 64 µg/mL	8 to 16 µg/mL	>64/64 ^c μg/mL	64 µg/mL	16 µg/mL	> 64 µg/mL	16 µg/mL	>64 µg/mL	32 µg/mL	> 64 µg/mL	32 µg/mL	>64 µg/mL	32 µg/mL	> 64 µg/mL	32 µg/mL	MIC E. coli BW25113 SbmA-, Full MH ([2]; full Müller-Hinton medium pH 7.4): > 64 µg/mL; MIC P. aeruginosa ZEM-1A, full MHB (P. aeruginosa ZEM-1A; clinical isolate, full MHB pH 7.4, 16–20 h at 37 °C, cells marked c: single measurement (in duplicates)): >64/64 ^c μg/mL; MIC P. aeruginosa ZEM-1A (P. aeruginosa ZEM-1A; full MH pH 7.4): >64 µg/mL; MIC P. aeruginosa ZEM9A (P. aeruginosa ZEM9A; full MH pH 7.4): >64 µg/mL; MIC E. cloacae, 12.5% MHB (E. cloacae): 8 µg/mL; MIC E. cloacae, full MHB (E. cloacae): > 64 µg/mL; MIC E. cloacae (E. cloacae; 12.5% MH pH 7.4): 8 µg/mL; MIC E. cloacae (E. cloacae; full MH pH 7.4): >64 µg/mL; MIC K. pneumoniae OXA-48, 12.5% MHB (K. pneumoniae OXA-48): >64/>64 μg/mL; MIC K. pneumoniae OXA-48, full MHB (K. pneumoniae OXA-48): >64/>64 μg/mL; MIC K. pneumoniae OXA-48 (K. pneumoniae OXA-48; 12.5% MH pH 7.4): >64 µg/mL; MIC K. pneumoniae OXA-48 (K. pneumoniae OXA-48; full MH pH 7.4): >64 µg/mL; Haemolysis on hRBC, MHC (human red blood cells): >1000 µg/mL; MHC human red blood cells (human red blood cells): >1000 µg/mL
VDKPPYLPRPRPPRRIYNR-NH2 [L-Onc, reference compound]	32 µg/mL	> 64 µg/mL	32 µg/mL	>64 µg/mL	4 µg/mL	16 to 32 µg/mL	8 µg/mL	8 to 16 µg/mL	8 to 16 µg/mL	16 µg/mL	> 64 µg/mL	16 µg/mL	>64 µg/mL	32 µg/mL	> 64 µg/mL	32 µg/mL	>64 µg/mL	32 µg/mL	> 64 µg/mL	32 µg/mL	MIC P. aeruginosa ZEM9A (P. aeruginosa ZEM9A; full MH pH 7.4): >64 µg/mL; MIC E. cloacae, 12.5% MHB (E. cloacae): 1 µg/mL; MIC E. cloacae, full MHB (E. cloacae): 32 µg/mL; MIC E. cloacae (E. cloacae; 12.5% MH pH 7.4): 1 µg/mL; MIC E. cloacae (E. cloacae; full MH pH 7.4): 32 µg/mL; MIC K. pneumoniae OXA-48, 12.5% MHB (K. pneumoniae OXA-48): 2 µg/mL; MIC K. pneumoniae OXA-48, full MHB (K. pneumoniae OXA-48): 32 µg/mL; MIC K. pneumoniae OXA-48 (K. pneumoniae OXA-48; 12.5% MH pH 7.4): 2 µg/mL; MIC K. pneumoniae OXA-48 (K. pneumoniae OXA-48; full MH pH 7.4): 32 µg/mL; Haemolysis on hRBC, MHC (human red blood cells): >1000 µg/mL; MHC human red blood cells (human red blood cells): >1000 µg/mL
